{"source": "patent US20210128740A1", "about": "“HDAC INHIBITORS-BASED ANTIBODY DRUG CONJUGATES (ADCs) AND USE IN THERAPY” (ALFASIGMA S.P.A., priority 2017, published 2021)", "set-up_in_all_cases": "species or system mice", "key": {"[1]": {"test_system": "NCI-H1975 non-small cell lung carcinoma", "test": "In vivo antitumor effect against s.c. NCI-H1975 non-small cell lung cancer", "conditions": "120 mg/kg, ip, q4dx4", "procedure": "Nude Nu/Nu female mice (from Charles River, Italy) were given a single subcutaneous injection of 5×10^6 NCI-H1975 non-small cell lung carcinoma cells suspended in 100 μL cell culture medium RPMI supplemented with 10% FBS. […] Vehicle group was treated by PBS. Tumor growth was measured with a caliper and tumor volume was calculated using the formula length (mm)×width 2 (mm)/2. The tumor inhibition was calculated according to the equation: % TVI=100−(mean tumor volume of treated group/mean tumor volume of control group)×100. Toxicity was evaluated on the basis of the body weight reduction.\nAnimals were euthanized by CO2 inhalation when the tumors reached a volume around 1200 mm^3."}, "[2]": {"test_system": "CAPAN-1 orthotopic pancreatic tumor", "test": "In vivo antitumor effect against orthotopic CAPAN-1 pancreas cancer", "conditions": "200 mg/kg, ip, q4dx4", "text": "Capan-1 (1×10^6) cells were directly injected into pancreas of experimental groups."}, "[3]": {"test_system": "A549 non-small cell lung carcinoma", "test": "In vivo antitumor effect of combination of Cetuximab with ST7612AA1 vs ADC against s.c. A549 lung cancer (Example 31)", "protocol": "The human A549 lung carcinoma cells were cultured in their appropriate complete medium. On the day of tumor injection, cells were harvested from subconfluent cultures by trypsinization, washed with PBS, suspended in PBS and subcutaneously injected into the right flank of immunodeficient mice (5×10^6/100 μL). Treatments started when tumor size was around 80 mm^3 and mice were randomized into the experimental groups (10 mice/group): […]"}}}
{"smiles": "CC(=O)SCCCCC[C@H](NC(=O)[C@H]1CCC(=O)N1)C(=O)Nc1ccccc1", "note": "[ST7612AA1]", "values": [{"measurement": "Antitumor activity", "setting": "[1]", "result": "completely inactive"}, {"measurement": "Tumor growth inhibition", "setting": "[2]", "result": 32, "unit": "%"}, {"measurement": "Antitumor activity", "setting": "[3]; 0.1 mg/kg, ip, q4dx4", "result": "not effective"}, {"measurement": "TVI at day 50", "setting": "[3]; 0.1 mg/kg, ip, q4dx4", "result": "0, P = 0.95"}, {"measurement": "TVI at day 56", "setting": "[3]; 0.1 mg/kg, ip, q4dx4", "result": "0, P = 0.88"}, {"measurement": "TVI at day 50", "setting": "[3]; 40 mg/kg, po, qdx5/wx3w", "result": "33, P = 0.007"}, {"measurement": "TVI at day 56", "setting": "[3]; 40 mg/kg, po, qdx5/wx3w", "result": "35, P = 0.0009"}]}
